{"source": "patent EP2768830B1", "about": "“APOPTOSIS-INDUCING AGENTS FOR THE TREATMENT OF CANCER AND IMMUNE AND AUTOIMMUNE DISEASES” (AbbVie Inc., priority 2011, dated 2013)", "key": {"[1]": {"tested_on": "mouse FL5.12 cells transfected with Bcl-XL", "experiment": "FL5.12 cellular assay (cell viability, CellTiter-Glo);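 note: each EC50 determination derived from duplicate measurements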", "assay_type": "cell-based", "settings": "Mus musculus; FL5.12 cells transfected with Bcl-XL, IL-3-depleted, 3% FBS assay media, 24 hours, CellTiter-Glo; read-out: FL5.12 Bcl-xL, - IL3, EC 50", "method": "For assaying the compound activity, the cells were exchanged into an IL-3-depleted deprivation media, which was identical to the growth media except for the absence of FBS and WEHI-3B conditional media, for 2 days. Then the cells were exchanged to 3% FBS assay media (RPMI with 2 mM glutamine, 1% 100 mM sodium pyruvate, 2% 1 M HEPES, 4 µL/L of β-mercaptoethanol, 1% penicillin-streptomycin, 3% FBS). Compounds in series dilutions were added, and the cells were cultured for 24 hours. Compounds in series dilutions were added, and the cells were cultured for 24 hours. Cell viability was assayed using the CellTiter-Glo assay (Promega Corp., Madison, WI) according to the manufacturer instructions. Individual determinations were the result of duplicate values."}, "GST-Bcl-xL": {"target": "GST-Bcl-xL (Homo sapiens, UniProt Q07817)", "sequence (Q07817 whole entry)": "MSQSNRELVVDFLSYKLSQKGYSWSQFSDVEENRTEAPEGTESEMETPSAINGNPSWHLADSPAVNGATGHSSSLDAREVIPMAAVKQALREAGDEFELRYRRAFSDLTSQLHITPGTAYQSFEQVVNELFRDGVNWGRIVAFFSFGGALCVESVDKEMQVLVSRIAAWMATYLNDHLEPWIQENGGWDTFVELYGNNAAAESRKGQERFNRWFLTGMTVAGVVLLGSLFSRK", "settings": "read-out: TR-FRET binding Bcl-xL Ki"}, "GST-Bcl-2": {"target": "T1, GST-Bcl-2 (Homo sapiens, UniProt P10415)", "T1 construct": "made in house", "T1 sequence (P10415 whole entry)": "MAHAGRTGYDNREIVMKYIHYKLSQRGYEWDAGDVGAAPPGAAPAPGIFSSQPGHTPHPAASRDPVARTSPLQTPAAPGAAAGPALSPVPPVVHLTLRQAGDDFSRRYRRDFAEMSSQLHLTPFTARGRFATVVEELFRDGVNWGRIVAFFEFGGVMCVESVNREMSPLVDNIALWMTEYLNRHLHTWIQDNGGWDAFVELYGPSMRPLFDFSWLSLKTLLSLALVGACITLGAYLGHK", "settings": "F-Bak probe, read-out: Ki, competition with F-Bak for the Bcl-2 binding site using the TR-FRET binding assay"}}}
{"smiles": "O=C(Nc1nc2ccccc2s1)c1cccc2c1CN(c1ccc(-c3cnn(-c4ccccc4)c3)c(C(=O)O)n1)CC2", "note": "[Example 23, 6-[8-(1,3-benzothiazol-2-ylcarbamoyl)-3,4-dihydroisoquinolin-2(1H)-yl]-3-(1-phenyl-1H-pyrazol-4-yl)pyridine-2-carboxylic acid]", "values": [{"measurement": "EC50", "setting": "[1]", "result": "> 1000", "unit": "nM"}, {"measurement": "Ki", "setting": "GST-Bcl-xL", "result": 182, "unit": "nM"}]}
{"smiles": "O=C(Nc1nc2ccccc2s1)c1cccc2c1CN(c1ccc(-c3ccnc(Oc4ccccc4)c3)c(C(=O)O)n1)CC2", "note": "[Example 140, 6-[8-(1,3-benzothiazol-2-ylcarbamoyl)-3,4-dihydroisoquinolin-2(1H)-yl]-2'-phenoxy-3,4'-bipyridine-2-carboxylic acid]", "values": [{"measurement": "EC50", "setting": "[1]", "result": "> 1000", "unit": "nM"}, {"measurement": "Ki", "setting": "GST-Bcl-xL", "result": 2.3, "unit": "nM"}]}
{"smiles": "Cc1c(-c2ccc(N3CCc4cccc(C(=O)Nc5nc6ccccc6s5)c4C3)nc2C(=O)O)cnn1Cc1ccccc1", "note": "[Example 20, 6-[8-(1,3-benzothiazol-2-ylcarbamoyl)-3,4-dihydroisoquinolin-2(1H)-yl]-3-(1-benzyl-5-methyl-1H-pyrazol-4-yl)pyridine-2-carboxylic acid]", "values": [{"measurement": "Ki", "setting": "GST-Bcl-2", "result": 70, "unit": "nM"}, {"measurement": "EC50", "setting": "[1]", "result": 13, "unit": "nM"}, {"measurement": "Ki", "setting": "GST-Bcl-xL", "result": 2, "unit": "nM"}]}
{"smiles": "Cc1c(-c2ccc(N3CCc4cccc(C(=O)Nc5nc6ccccc6s5)c4C3)nc2C(=O)O)cnn1CC1(OCC(=O)N2CCOCC2)CCCCC1", "note": "[Example 174, 6-[8-(1,3-benzothiazol-2-ylcarbamoyl)-3,4-dihydroisoquinolin-2(1H)-yl]-3-[5-methyl-1-({1-[2-(morpholin-4-yl)-2-oxoethoxy]cyclohexyl}methyl)-1H-pyrazol-4-yl]pyridine-2-carboxylic acid]", "values": [{"measurement": "EC50", "setting": "[1]", "result": 210, "unit": "nM"}, {"measurement": "Ki", "setting": "GST-Bcl-xL", "result": "< 0.1", "unit": "nM"}]}
{"smiles": "O=C(Nc1nc2ccccc2s1)c1cccc2c1CN(c1ccc(-c3ccc4c(c3)CCN(Cc3ccccn3)C4)c(C(=O)O)n1)CC2", "note": "[Example 136, 6-[8-(1,3-benzothiazol-2-ylcarbamoyl)-3,4-dihydroisoquinolin-2(1H)-yl]-3-[2-(pyridin-2-ylmethyl)-1,2,3,4-tetrahydroisoquinolin-6-yl]pyridine-2-carboxylic acid]", "values": [{"measurement": "EC50", "setting": "[1]", "result": "> 1000", "unit": "nM"}, {"measurement": "Ki", "setting": "GST-Bcl-xL", "result": 1.4, "unit": "nM"}]}
{"smiles": "COCC(COC1(Cn2ncc(-c3ccc(N4CCc5cccc(C(=O)Nc6nc7ccccc7s6)c5C4)nc3C(=O)O)c2C)CCCCCC1)OC", "note": "(stereo not drawn) [Example 170, 6-[8-(1,3-benzothiazol-2-ylcarbamoyl)-3,4-dihydroisoquinolin-2(1H)-yl]-3-(1-{[1-(2,3-dimethoxypropoxy)cycloheptyl]methyl}-5-methyl-1H-pyrazol-4-yl)pyridine-2-carboxylic acid]", "values": [{"measurement": "EC50", "setting": "[1]", "result": 0.5, "unit": "nM"}, {"measurement": "Ki", "setting": "GST-Bcl-xL", "result": "< 0.1", "unit": "nM"}]}
{"smiles": "O=C(Nc1nc2ccccc2s1)c1cccc2c1CN(c1ccc(-c3cnn(CC4CCOCC4)c3)c(C(=O)O)n1)CC2", "note": "[Example 50, 6-[8-(1,3-benzothiazol-2-ylcarbamoyl)-3,4-dihydroisoquinolin-2(1H)-yl]-3-[1-(tetrahydro-2H-pyran-4-ylmethyl)-1H-pyrazol-4-yl]pyridine-2-carboxylic acid]", "values": [{"measurement": "EC50", "setting": "[1]", "result": "> 1000", "unit": "nM"}, {"measurement": "Ki", "setting": "GST-Bcl-xL", "result": 99, "unit": "nM"}]}
